Source: ChEMBL document CHEMBL1671851, “Population pharmacokinetics of rifampin in pulmonary tuberculosis patients, including a semimechanistic model to describe variable absorption” (Antimicrob Agents Chemother, 2008)

What was measured:
Homo sapiens [1] = organism: Homo sapiens; test: Absorption rate constant in pulmonary tuberculosis patient in Sequential 0 order and first order model; type: ADME, organism-based; conditions: in vivo
Homo sapiens [2] = test: AUC (0 to 10 hrs) in north american pulmonary tuberculosis patient coinjected with HIV with body weight >50 kg at 600 mg/day, po; type: ADME, organism-based, Plasma; design: time < 10 hr, dose 600 mg/day, route oral; conditions: in vivo
[3] = Apparent oral clearance in pulmonary tuberculosis patient in Sequential 0 order and first order model; type: ADME, organism-based; conditions: human, in vivo
[4] = Apparent volume of distribution in pulmonary tuberculosis patient in first order model; type: ADME, organism-based; conditions: human, in vivo; read-out: Vz
[5] = Apparent volume of distribution in pulmonary tuberculosis patient in first order and lag time model; type: ADME, organism-based; conditions: human, in vivo; read-out: Vz
Homo sapiens [6] = test: AUC (0 to 12 hrs) in kenyan pulmonary tuberculosis patient coinjected with HIV with body weight <=45 kg at 450 mg/day, po; type: ADME, organism-based, Plasma; design: time < 12 hr, dose 450 mg/day, route oral; conditions: in vivo
[7] = Apparent oral clearance in pulmonary tuberculosis patient in first order and lag time model; type: ADME, organism-based; conditions: human, in vivo
[8] = Apparent oral clearance in pulmonary tuberculosis patient in first order model; type: ADME, organism-based; conditions: human, in vivo
Homo sapiens [9] = test: AUC (0 to 12 hrs) in kenyan pulmonary tuberculosis patient with body weight >45 kg at 600 mg/day, po; type: ADME, organism-based, Plasma; design: dose 600 mg/day, time < 12 hr, route oral; conditions: in vivo
Homo sapiens [10] = test: AUC (0 to infinity) in indian pulmonary tuberculosis patient at 450 mg/day, po; type: ADME, organism-based, Plasma; design: dose 450 mg/day, route oral, time infinity; conditions: in vivo
Homo sapiens [11] = test: AUC (0 to 24 hrs) in indonesian pulmonary tuberculosis patient at 450 mg/day, po; type: ADME, organism-based, Plasma; design: dose 450 mg/day, time < 24 hr, route oral; conditions: in vivo
[12] = Apparent oral clearance in pulmonary tuberculosis patient in transit compartment model; type: ADME, organism-based; conditions: human, in vivo
[13] = Apparent volume of distribution in pulmonary tuberculosis patient in transit compartment model; type: ADME, organism-based; conditions: human, in vivo; read-out: Vz
Homo sapiens [14] = organism: Homo sapiens; test: Mean transient time in pulmonary tuberculosis patient in transit compartment model; type: ADME, organism-based; conditions: in vivo
Homo sapiens [15] = test: AUC (0 to 12 hrs) in kenyan pulmonary tuberculosis patient with body weight <=45 kg at 450 mg/day, po; type: ADME, organism-based, Plasma; design: time < 12 hr, dose 450 mg/day, route oral; conditions: in vivo
Homo sapiens [16] = test: AUC (0 to 24 hrs) in south african pulmonary tuberculosis patient with body weight <=50 kg at 450 mg/day, po; type: ADME, organism-based, Plasma; design: time < 24 hr, dose 450 mg/day, route oral; conditions: in vivo
Homo sapiens [17] = organism: Homo sapiens; test: Absorption rate constant in pulmonary tuberculosis patient in first order model; type: ADME, organism-based; conditions: in vivo
Homo sapiens [18] = test: AUC (0 to infinity) in indian pulmonary tuberculosis patient coinjected with HIV at 450 mg/day, po; type: ADME, organism-based, Plasma; design: dose 450 mg/day, time infinity, route oral; conditions: in vivo
Homo sapiens [19] = test: AUC (0 to 12 hrs) in german pulmonary tuberculosis patient at 600 mg/day, po; type: ADME, organism-based, Plasma; design: dose 600 mg/day, time < 12 hr, route oral; conditions: in vivo
[20] = Apparent volume of distribution in pulmonary tuberculosis patient in Sequential 0 order and first order model; type: ADME, organism-based; conditions: human, in vivo; read-out: Vz
Homo sapiens [21] = test: AUC (0 to 10 hrs) in north american pulmonary tuberculosis patient coinjected with HIV with body weight <=50 kg at 450 mg/day, po; type: ADME, organism-based, Plasma; design: time < 10 hr, dose 450 mg/day, route oral; conditions: in vivo
Homo sapiens [22] = test: AUC (0 to 12 hrs) in kenyan pulmonary tuberculosis patient coinjected with HIV with body weight >45 kg at 600 mg/day, po; type: ADME, organism-based, Plasma; design: time < 12 hr, dose 600 mg/day, route oral; conditions: in vivo
Homo sapiens [23] = organism: Homo sapiens; test: Absorption rate constant in pulmonary tuberculosis patient in first order and lag time model; type: ADME, organism-based; conditions: in vivo
Homo sapiens [24] = organism: Homo sapiens; test: Absorption rate constant in pulmonary tuberculosis patient in transit compartment model; type: ADME, organism-based; conditions: in vivo
Homo sapiens [25] = test: AUC (0 to 24 hrs) in indonesian pulmonary tuberculosis patient at 600 mg/day, po; type: ADME, organism-based, Plasma; design: time < 24 hr, dose 600 mg/day, route oral; conditions: in vivo
Homo sapiens [26] = test: AUC (0 to 24 hrs) in south african pulmonary tuberculosis patient with body weight >50 kg at 600 mg/day, po; type: ADME, organism-based, Plasma; design: time < 24 hr, dose 600 mg/day, route oral; conditions: in vivo

Compound CO[C@H]1/C=C/O[C@@]2(C)Oc3c(C)c(O)c4c(O)c(c(/C=N/N5CCN(C)CC5)c(O)c4c3C2=O)NC(=O)/C(C)=C\C=C\[C@H](C)[C@H](O)[C@@H](C)[C@@H](O)[C@@H](C)[C@H](OC(C)=O)[C@@H]1C [RIFAMPIN] has a Ka (Homo sapiens [1]) of 1.23 L/h, an AUC (Homo sapiens [2]) of 30100 ng·h/mL and a CL/F [3] of 320 mL/min. For the same compound, the Vd [4] was 52.8 L, the Vd [5] was 53.4 L and the AUC (Homo sapiens [6]) was 19600 ng·h/mL. The CL/F [7] was 337 mL/min, the CL/F [8] was 323 mL/min and the AUC (Homo sapiens [9]) was 23100 ng·h/mL. It also gave an AUC (Homo sapiens [10]) of 44600 ng·h/mL, an AUC (Homo sapiens [11]) of 48500 ng·h/mL and a CL/F [12] of 320 mL/min. It also gave a Vd [13] of 53.2 L, an MTT (Homo sapiens [14]) of 0.424 h and an AUC (Homo sapiens [15]) of 23100 ng·h/mL. It also gave an AUC (Homo sapiens [16]) of 30700 ng·h/mL, a Ka (Homo sapiens [17]) of 1.61 L/h and an AUC (Homo sapiens [18]) of 28200 ng·h/mL. It also gave an AUC (Homo sapiens [19]) of 60300 ng·h/mL, a Vd [20] of 51.5 L and an AUC (Homo sapiens [21]) of 30100 ng·h/mL. The AUC (Homo sapiens [22]) was 19600 ng·h/mL, the Ka (Homo sapiens [23]) was 1.64 L/h and the Ka (Homo sapiens [24]) was 1.15 L/h. For the same compound, the AUC (Homo sapiens [25]) was 79700 ng·h/mL and the AUC (Homo sapiens [26]) was 30700 ng·h/mL.
